“Also recorded” adds a separate entry of the source.
Assays:
26S proteasomes [1] = test: Deubiquitination of UbSic1 by epoxomicin-treated purified 26S proteasomes; assay type: biochemical, S. cerevisiae; conditions: 100 μM test compound, 100 μM epoxomicin
Method: (§1) FIG. 2. […] (A) Degradation of UbSic1. Purified 26S proteasomes were preincubated in the presence or absence of test compounds. UbSic1 was then added, and degradation assayed as described (6). Py mock refers to the pyridine solvent in which C23 was dissolved which was marginally inhibitory, unlike the 50% DMSO vehicle used for other test compounds. (B) Deubiquitination of UbSic1. […] UbSic1 was then added, and deubiquitination was assayed as described (6). (C) Titration curve with varying concentrations of C92 to determine half-maximal inhibition of deubiquitination. (D) C92 inhibits binding of UbSic1 to 26S proteasomes. Purified 26S proteasomes immobilized on anti-Flag beads were incubated with UbSic1 in the presence or absence of C92 as described (6). Following binding, beads were washed and analyzed by immunoblotting with anti-Sic1 polyclonal serum. (E) Binding of UbSic1 to the polyUb binding proteins Rpn10 and Rad23 is inhibited by C92. Recombinant Gst-Rpn10 and Gst-Rad23 (1 μg each) were immobilized on glutathione sepharose beads and then incubated with UbSic1 in the presence or absence of C92. Following binding, beads were washed and analyzed by immunoblotting. (F) C92 interacts with multiUb chains. Equivalent amounts (5 μg) of purified Gst, Gst-fusion protein or multiUb chains were incubated with C92 or C1 before being loaded on a 5% native polyacryamide gel. Electrophoresis was performed as described (33). (G) C92 and C59 interact specifically with K48-linked Ub on native gels. Ub (16 μM), K48-linked diUb (8 μM), or tetraUb chains (8 μM) were preincubated with a two fold-molar excess (monoUb and diUb), or equivalent amounts (tetraUb) of test compounds before being resolved on native gels as in (G). Tetra K29Ub, K48Ub, and K63Ub refer to tetraubiquitin chains wherein the ubiquitins are linked via K29, K48, or K63.
FIG. 5. […] Assays were performed and evaluated as summarized in the legend to FIG. 2B. The metal chelating reagent phenanthroline is designated as “P”, and “Py” refers to the pyridine solvent that is used as the solvent for C23. (B) Titration curve for C59. (C) Inhibition of binding of ubiquitin conjugates to Gst-Rpn10 by C92 and C59, but not other compounds. The experiment was performed as described for FIG. 2E.
26S proteasomes were purified from S. cerevisiae cells expressing a Flag-tagged proteasomal subunit (PRE1) essentially as described (28).
Reactions were processed as above.

[2] = test system: cyclin-luciferase (cyc-luc) turnover, activated APC/C; test: cyc-luc turnover in mitotic Xenopus extracts (pre-treated with non-degradable cyclin B); assay type: biochemical; conditions: 200 μM compound; extracts in mitosis before addition of compound
Method: (§2) FIG. 1. Functional classification of inhibitors. Compounds that scored in the initial screen were reacquired as dry powders and retested in Xenopus extracts in 4 assays at 200 μM concentration (32) as described (6). […] (A) Compounds and cyclin-luciferase were added to interphase extracts, which were then induced to enter mitosis by addition of non-degradable cyclin B. Percent inhibition of cyc-luc turnover by each compound is coded according to the grayscale shown at the bottom of the figure; specific values are available in Table 1. (B) Extracts were pre-treated with non-degradable cyclin B to allow entry into mitosis prior to addition of test compound and reporter protein. (C) Interphase extracts were treated by addition of recombinant Cdh1 to activate cyc-luc turnover. (D) Interphase extracts were treated with recombinant axin to induce turnover of β-catenin-luciferase.
(§3) The “Cmpd” column corresponds to the numbers used in FIG. 1; “Class” refers to the class of inhibitor described in FIG. 1 and the text. Columns A-D show percent inhibition in the four assays described in FIG. 1. (A) Interphase extracts (B) Mitotic extracts (C) Interphase extracts stimulated with Cdh1 (D) Degradation of a β-catenin reporter protein in interphase extracts stimulated with recombinant axin. […] “ID#” refers to the identification number of the inhibitor obtained from the NCI (prefaced by NSC) or Chembridge (prefaced by C).
(§4) Dry compounds were redissolved at 20 mM concentration in DMSO, or a 50:50 water:DMSO mixture in certain cases. These compounds were then diluted ten-fold in XB and mixed thoroughly. For the assay in FIG. 1A, chilled interphase extract was mixed with cyclin BΔ90 (10 μg/ml) and cyc-luc (0.1 μg/ml) in bulk and then 27 μl of extract was pipetted to each well of a chilled 384-well plate. Three microliters of each compound (diluted in XB) was then added to each well, and then compounds mixed thoroughly. Plates were warmed to room temperature. After 70 minutes, 5 μl aliquots were transferred to another plate, and then 30 μl of luciferin reagent was added to each well and luminescence measured. Percent inhibition was calculated as described above. The reported values represent the average of three independent measurments. For the assay in FIG. 1B, interphase extracts were treated with 10 μg/cyclin B 90 for 50 minutes at room temperature and then chilled on ice. Cyc-luc was then added, and then 27 μl of extract was pipetted to each well of a chilled 384-well plate. Three microliters of each compound (diluted in XB) was then added to each well, and then compounds mixed thoroughly. Plates were warmed to room temperature. After 60 minutes, 5 μl aliquots were transferred to another plate, and then 30 μl of luciferin reagent was added to each well and luminescence measured. For the assay in FIG. 1C, recombinant Cdh1 (0.1 μg/ml) and cyc-luc were added to chilled interphase extracts. Extracts were then pipetted and compounds added as above. Plates were warmed to room temperature and incubated for three hours, following which luminescence was measured as above. For the assay in FIG. 1D, chilled interphase extracts received recombinant axin and beta-catenin-luciferase reporter as described (8). Extracts were aliquoted to chilled plates and compounds distributed as described above. Plates were warmed to room temperature, incubated for three hours, and luminescence measured.

26S proteasomes [3] = test: Degradation of UbSic1 by purified 26S proteasomes; assay type: biochemical, S. cerevisiae; conditions: concentrations as low as 10 μM
Method: as §1
Sic1 is a Cdk inhibitor in Saccharomyces cerevisiae that must be degraded for cells to enter S-phase (9-11). […]

[4] = test system: β-catenin-luciferase turnover (substrate of the SCFβ-TRCP ubiquitin ligase); test: β-catenin-luciferase turnover in interphase Xenopus extracts stimulated with recombinant axin; assay type: biochemical; conditions: 200 μM compound
Method: as §2, §3, §4

| Compound | inhibition of deubiquitination of UbSic1 (in words) (26S proteasomes [1]; listed as C23) | percent inhibition of cyc-luc turnover, (B) Mitotic extracts [2] | inhibitory effect on Sic1 (UbSic1) turnover (26S proteasomes [3]) | percent inhibition, (D) Degradation of a β-catenin reporter protein in interphase extracts stimulated with recombinant axin [4] | inhibition of deubiquitination of UbSic1 (in words) (26S proteasomes [1]) |
| --- | --- | --- | --- | --- | --- |
| CC(=O)Nc1ccc(SSc2ccc(NC(C)=O)c3cccnc23)c2ncccc12 [Compound 23] | marginal inhibition; also recorded: inhibited marginally | 100% | more modest effect | 27% |  |
| O=C(Nc1ccc(/C=C/c2ccc(NC(=O)c3cc(S(=O)(=O)O)c4cccnc4c3O)cc2S(=O)(=O)O)c(S(=O)(=O)O)c1)c1cc(S(=O)(=O)O)c2cccnc2c1O [Compound 92] |  | 22% | strong inhibitory effect | 21% | completely blocked |
| O=S(=O)(O)c1ccc2cc3c(cc2c1)NN(c1ccc(/C=C/c2ccc(N4Nc5cc6ccc(S(=O)(=O)O)cc6cc5N4)cc2S(=O)(=O)O)c(S(=O)(=O)O)c1)N3 [Compound 59] |  | 100% | strong inhibitory effect | 70% | Complete inhibition |
